In brackets after ≈: the same amount, converted by molar mass. Several values for one entry are separate records, joined by “and”; a condition that tells them apart may be missing. Equal entries are not always repeated. Structures can show the parent of a compound that is named as a salt. Where two headings read alike, the source gives them in different places.
Assays:
[1] = tested on: A/Victoria/3/75 BVLV017 (H3N2); test: Plaque reduction assay (PRA) in MDCK cells; format: cell-based; settings: for EC50: Influenza A virus
[2] = tested on: A/New Caledonia/20/99 BVLV008 (H1N1); test: Plaque reduction assay (PRA) in MDCK cells; format: cell-based; settings: Influenza A virus
B/Hong Kong/5/72 BVLV012 = test: Plaque reduction assay (PRA) in MDCK cells; format: cell-based, influenza B; settings: for EC50: Influenza B virus, MDCK, read-out: EC50 PRA B/HongK
Experimental: (§1) Madin Darby Canine Kidney (MDCK) cells are seeded into six well tissue culture plates and grown to confluency via standard methods. Influenza viruses are diluted in a minimal volume of phosphate buffered saline supplemented with 0.2% bovine serum albumin to yield an estimated titre of 50–100 plaque forming units (pfu) per well. After adsorption to the MDCK cells for one hour at 37° C. in a 5% CO2 atmosphere the viral inocula is aspirated and replaced with viral growth media (minimal Eagle's media supplemented with BSA, trypsin and insulin/transferrin/selenium at optimal concentrations) containing sufficient agar or agarose (generally 1–2%) to cause the media to gel at room temperature and at 37° C. in a 5% CO2 atmosphere until plaques develop (generally 2–4 days). Plaques can be visualised with a suitable stain (e.g. 0.4% crystal violet in formal saline) before counting.

[3] = tested on: B/Yamanashi/166/98 BVLV007; test: Plaque reduction assay (PRA) in MDCK cells; format: cell-based; settings: for EC50: Influenza B virus, MDCK
Influenza A/Sydney/5/97 = test: Cytopathic effect (CPE) assay, inhibition of influenza virus replication in MDCK cells; format: cell-based
Influenza B/Harbin/7/95 = test: as above; format: cell-based; settings: up to 72 hours, MTT
[4] = tested on: A/Sydney/5/97 BVLV015 (H3N2); test: Plaque reduction assay (PRA) in MDCK cells; format: cell-based, influenza A H3N2; settings: A/Sydney/5/97 (H3N2)
Experimental: as §1

B/Victoria/1/67 = test: Plaque reduction assay (PRA) in MDCK cells; format: cell-based, influenza B; settings: bis(trifluoroacetic acid salt)
[5] = Rat lung retention assay (intra-tracheal dosing); format: in vivo; settings: for Mean (cmpd) / (cmpd): 0.1 mg/kg intra-tracheal; for (cmpd) / PCT AU01/01128 compound 3 ng/g: individual animal; for (cmpd): bis(trifluoroacetic acid salt)
Experimental: Rodents are anaesthetised and dosed with compound of interest by the intra-tracheal route at a dose volume of 0.8 ml/kg. The rodent is then held in the vertical position until full recovery is achieved. […] Any analytical method suitable for detection of this type of compound may be used. The time at which levels of compound fall below the sensitivity of the analytical techniques identified will determine the residency time of the compound in lung tissue.
Please note that all experiments included a co-dosed internal standard, namely compound 3 of International Patent Publication No. WO 02/20514, to permit comparison. The data are expressed as a ratio with respect to this compound, the structure of which is shown below.

A/WSN/33 BVLV09 (H1N1) = test: Plaque reduction assay (PRA) in MDCK cells; format: cell-based, influenza A H1N1; settings: Influenza A virus, MDCK, A/WSN/33 (H1N1)
Experimental: as §1

[6] = tested on: A/Panama/2007/99 BVLV008 (H3N2); test: Plaque reduction assay (PRA) in MDCK cells; format: cell-based; settings: Influenza A virus
[7] = H1N1, MDCK, read-out: EC50 PRA A/New, plaque reduction, A/New Caledonia/20/99 (H1N1)
[8] = read-out: EC50 PRA B/Yam, plaque reduction, B/Yamanashi/166/98
[9] = rat, in vivo, 0.1 mg/kg, Mean (cmpd) ng/g
[10] = rat lung, co-dosed internal standard, 48 hrs

## NC12CC3CC(CC(C3)C1)C2 [Amantadine, reference compound]
[1]; H3N2, MDCK, read-out: EC50 PRA A/Vic, plaque reduction, A/Victoria/3/75 (H3N2)
  EC50: 220 ng/mL (≈ 1.45 µM)
[2]; [7]
  EC50: 11 ng/mL (≈ 0.0727 µM)
B/Hong Kong/5/72 BVLV012
  EC50: > 10000 ng/mL
[3]; [8]
  EC50: 2060 ng/mL (≈ 13.6 µM)

## CC(=O)N[C@H]1[C@H]([C@H](OC(=O)NCCCCCCCCCCNC(=O)O[C@@H]([C@@H]2OC(C(=O)O)=C[C@H](NC(=N)N)[C@H]2NC(C)=O)[C@H](O)CO)[C@H](O)CO)OC(C(=O)O)=C[C@@H]1NC(=N)N.O=C(O)C(F)(F)F.O=C(O)C(F)(F)F [Example 1, (2R,3R,4S)-3-(acetylamino)-2-{(1R,18R,19R)-18-((2R,3R,4S)-3-(acetylamino)-4-{[amino(imino)methyl]amino}-6-carboxy-3,4-dihydro-2H-pyran-2-yl)-1-[(1R)-1,2-dihydroxyethyl]-19,20-dihydroxy-3,16-dioxo-2,17-dioxa-4,15-diazaicos-1-yl}-4-{[amino(imino)methyl]amino}-3,4-dihydro-2H-pyran-6-carboxylic acid bis(trifluoroacetic acid salt)]
Influenza A/Sydney/5/97; up to 72 hours, MTT
  ID50 A/Sydney/5/97: 0.0002 µg/mL
Influenza B/Harbin/7/95
  ID50 B/Harbin/7/95: 0.0001 µg/mL

## CC(=O)N[C@H]1[C@H]([C@H](OC(=O)NCCCCCCCCCCCNC(=O)O[C@@H]([C@@H]2OC(C(=O)O)=C[C@H](NC(=N)N)[C@H]2NC(C)=O)[C@H](O)CO)[C@H](O)CO)OC(C(=O)O)=C[C@@H]1NC(=N)N.O=C(O)C(F)(F)F.O=C(O)C(F)(F)F [Example 2, (2R,3R,4S)-3-(acetylamino)-2-{(1R,19R,20R)-19-((2R,3R,4S)-3-(acetylamino)-4-{[amino(imino)methyl]amino}-6-carboxy-3,4-dihydro-2H-pyran-2-yl)-1-[(1R)-1,2-dihydroxyethyl]-20,21-dihydroxy-3,17-dioxo-2,18-dioxa-4,16-diazahenicos-1-yl}-4-{[amino(imino)methyl]amino}-3,4-dihydro-2H-pyran-6-carboxylic acid bis(trifluoroacetic acid salt)]
Influenza A/Sydney/5/97; up to 72 hours, MTT
  ID50 A/Sydney/5/97: 0.0001 µg/mL
Influenza B/Harbin/7/95
  ID50 B/Harbin/7/95: 0.0001 µg/mL
[4]
  EC50 PRA A/Syd: <0.0001 ng/mL
B/Victoria/1/67
  EC50 PRA B/Vic: 0.04 ng/mL
[3]; plaque reduction, B/Yamanashi/166/98
  EC50 PRA B/Yam: <0.0001 ng/mL

## CC(=O)N[C@H]1[C@H]([C@H](OC(=O)NCCCCCCCCCCCCNC(=O)O[C@@H]([C@@H]2OC(C(=O)O)=C[C@H](NC(=N)N)[C@H]2NC(C)=O)[C@H](O)CO)[C@H](O)CO)OC(C(=O)O)=C[C@@H]1NC(=N)N.O=C(O)C(F)(F)F.O=C(O)C(F)(F)F [Example 3, (2R,3R,4S)-3-(acetylamino)-2-{(1R,20R,21R)-20-((2R,3R,4S)-3-(acetylamino)-4-{[amino(imino)methyl]amino}-6-carboxy-3,4-dihydro-2H-pyran-2-yl)-1-[(1R)-1,2-dihydroxyethyl]-21,22-dihydroxy-3,18-dioxo-2,19-dioxa-4,17-diazadocos-1-yl}-4-{[amino(imino)methyl]amino}-3,4-dihydro-2H-pyran-6-carboxylic acid bis(trifluoroacetic acid salt)]
Influenza A/Sydney/5/97; molar
  ID50 A/Sydney/5/97: 0.087 M
Influenza A/Sydney/5/97; up to 72 hours, MTT
  ID50 A/Sydney/5/97: 0.0001, 0.0001 μg/ml
Influenza B/Harbin/7/95
  ID50 B/Harbin/7/95: 0.0001, 0.0001 μg/ml
[1]; plaque reduction, A/Victoria/3/75 (H3N2)
  EC50 PRA A/Vic: 0.0023 ng/mL
B/Victoria/1/67
  EC50 PRA B/Vic: 0.01 ng/mL
B/Hong Kong/5/72 BVLV012
  EC50 PRA B/HongK: <0.0001 ng/mL
[5]; rat lung, 48 hrs
  Mean (cmpd): 1117 ng/g
[5]; rat lung, 168 hrs
  Mean (cmpd): 376 ng/g
[5]; rat lung, 48 hrs, 0.1 mg/kg
  (cmpd): 591 ng/g and 1845 ng/g and 914 ng/g
[5]; rat lung, 168 hrs, 0.1 mg/kg
  (cmpd): 471 ng/g and 546 ng/g and 111 ng/g

## CC(=O)N[C@H]1[C@H]([C@H](OC(=O)NCCCCCCCCCCCCCNC(=O)O[C@@H]([C@@H]2OC(C(=O)O)=C[C@H](NC(=N)N)[C@H]2NC(C)=O)[C@H](O)CO)[C@H](O)CO)OC(C(=O)O)=C[C@@H]1NC(=N)N [Example 4, (2R,3R,4S)-3-(acetylamino)-2-{(1R,21R,22R)-21-((2R,3R,4S)-3-(acetylamino)-4-{[amino(imino)methyl]amino}-6-carboxy-3,4-dihydro-2H-pyran-2-yl)-1-[(1R)-1,2-dihydroxyethyl]-22,23-dihydroxy-3,19-dioxo-2,20-dioxa-4,18-diazatricos-1-yl}-4-{[amino(imino)methyl]amino}-3,4-dihydro-2H-pyran-6-carboxylic acid bis(trifluoroacetic acid salt)]
Influenza A/Sydney/5/97; up to 72 hours, MTT
  ID50 A/Sydney/5/97: 0.0001 µg/mL
Influenza B/Harbin/7/95
  ID50 B/Harbin/7/95: 0.0001 µg/mL
A/WSN/33 BVLV09 (H1N1)
  EC50: < 0.0001 ng/mL
[4]; Influenza A virus, MDCK, read-out: EC50 PRA A/Syd
  EC50: < 0.0001 ng/mL
[2]; [7]
  EC50: 0.043 ng/mL
[6]; H3N2, MDCK, read-out: EC50 PRA A/Pan, plaque reduction, A/Panama/2007/99 (H3N2)
  EC50: < 1e-05 ng/mL
B/Hong Kong/5/72 BVLV012
  EC50: 0.06 ng/mL
[3]; [8]
  EC50: < 0.0001 ng/mL
[5]; rat, in vivo, 0.1 mg/kg, 48 h
  Ratio Mean (lung) (cmpd)/PCT AU01/01128 compound 3: 1.70
[5]; rat, in vivo, 0.1 mg/kg, 168 h
  Ratio Mean (lung) (cmpd)/PCT AU01/01128 compound 3: 1.48
[5]; [9]
  concentration at 48 h: 1770 ng/g
  concentration at 168 h: 756 ng/g

## CCOC(=O)C1=C[C@@H](OC(CC)CC)[C@H](NC(C)=O)[C@@H](N)C1 [Oseltamivir]
[1]; MDCK, plaque reduction, A/Victoria/3/75 (H3N2), read-out: EC50 PRA A/Vic
  EC50: 0.11 ng/mL (≈ 0.000352 µM)
[2]; MDCK, plaque reduction, A/New Caledonia/20/99 (H1N1), read-out: EC50 PRA A/New
  EC50: 0.23 ng/mL (≈ 0.000736 µM)
[6]; MDCK, plaque reduction, A/Panama/2007/99 (H3N2), read-out: EC50 PRA A/Pan
  EC50: 0.3 ng/mL (≈ 0.00096 µM)
B/Hong Kong/5/72 BVLV012
  EC50: 32 ng/mL (≈ 0.102 µM)
[3]; plaque reduction, B/Yamanashi/166/98, read-out: EC50 PRA B/Yam
  EC50: 0.7 ng/mL (≈ 0.00224 µM)

## CC(=O)N[C@H]1[C@H]([C@H](OC(=O)NCCCCCCNC(=O)CN(CCN(CC(=O)NCCCCCCNC(=O)O[C@H](C(O)CO)[C@@H]2OC(C(=O)O)=C[C@H](NC(=N)N)[C@H]2NC(C)=O)CC(=O)NCCCCCCNC(=O)O[C@H](C(O)CO)[C@@H]2OC(C(=O)O)=C[C@H](NC(=N)N)[C@H]2NC(C)=O)CC(=O)NCCCCCCNC(=O)O[C@H](C(O)CO)[C@@H]2OC(C(=O)O)=C[C@H](NC(=N)N)[C@H]2NC(C)=O)[C@H](O)CO)OC(C(=O)O)=C[C@@H]1NC(=N)N (stereo partly drawn) [PCT AU01/01128 compound 3]
[5]; [10]
  Mean (PCT AU01/01128 compound 3): 1478 ng/g and 1368 ng/g and 1413 ng/g
  PCT AU01/01128 compound 3 ng/g: 1098 ng/g and 1352 ng/g and 681 ng/g and 784 ng/g and 2046 ng/g and 1605 ng/g and 698 ng/g and 1901 ng/g and 1507 ng/g and 655 ng/g and 1840 ng/g and 1744 ng/g
[5]; rat lung, co-dosed internal standard, 168 hrs
  PCT AU01/01128 compound 3 ng/g: 580 ng/g and 829 ng/g and 636 ng/g and 524 ng/g and 367 ng/g and 632 ng/g and 242 ng/g (2×) and 216 ng/g and 815 ng/g and 925 ng/g and 512 ng/g
[5]; rat, in vivo, rat lung, co-dosed internal standard, 48 hrs, read-out: Mean (PCT AU01/01128 compound 3)
  concentration at 48 h: 1040 ng/g

Source: patent US7230028B2, “Dimeric compounds and their use as anti-viral agents” (priority 2001, dated 2007)
